Data taken from US20220282304A1, “SAME-SAMPLE ANTIBIOTIC SUSCEPTIBILITY TEST AND RELATED COMPOSITIONS, METHODS AND SYSTEMS” (CALIFORNIA INSTITUTE OF TECHNOLOGY, priority 2021, published 2022).

Tested on: Escherichia coli K12
Test: Digital same-sample filtration AST at two antibiotic concentrations (Example 13)
Format: cell-based
Conditions: for Both (number of wells) / Empty (number of wells) / Extracellular only (number of wells) / Intracellular only (number of wells): 19.0 to 21.2 minutes to centrifugation, 32 partitions, qPCR
Description: A 96-well microtiter plate was prepared for the experiment by placing Mueller-Hinton Broth (MHB) growth media and one of three different concentrations of ertapenem (ETP) sodium salt into each well. 32 of the wells contained 0 μg/mL of ETP antibiotic and served as reference condition antibiotic exposures; pure water was added instead of ETP dissolved in pure water. Another 32 of the wells contained 0.417 μg/mL of ETP (for a final concentration of 0.25 μg/mL). The last 32 wells contained 3.33 μg/mL of ETP (for a final concentration of 2.0 μg/mL). The 64 wells containing some ertapenem constituted the treated condition antibiotic exposures.
The inoculum was small enough that no detectable difference in the sample's optical density at 600 mm (OD600) was detectable by a spectrophotometer with a sensitivity of 0.01 absorbance units. After an incubation at 37° C., the media became turbid with an OD600 of 0.334 absorbance units after 3.5 hours of incubation.
In this experiment, the number and volume of sample partitions was restricted, for logistical reasons, to 96 partitions 25 μL in volume, specifically the wells of a 96-well plate. A target loading density of 0.5 cells per partition was set. The contrived clinical sample was diluted by a factor of 9.97239*10^−7 via a three-step serial dilution to an estimated density of […].
To begin the AST protocol, the diluted contrived clinical specimen was physically partitioned into the 96 samples by transferring 10 μL of the specimen, in 96 separate transfers (actually 8 transfers with a multichannel pipette), to each well of the 96-well microtiter plate containing ETP and MHB. Then, the entire plate was sealed with a RNase/DNase-free plastic, adhesive sealing membrane and placed on a thermal block set to 37° C. and shaking at 700 rpm.
After 8 minutes of incubation at 37° C., the exposures were taken back to the lab bench. The entire volume of each antibiotic exposure was transferred to a Millipore® 96-well sterile polystyrene MultiScreenHTS® filter plate (Millipore-Sigma MSGVS2210). Each well of the filter plate contained a hydrophilic polyvinylidene fluoride (PVDF) filter membrane with a […]. A 96-well polypropylene microtiter plate was affixed to the bottom of the filter plate. The filter plate was promptly centrifuged at 2200 relative centrifugal force for 5.0 minutes to speed the passage of the antibiotic exposure sample through the filter and into 96-well microtiter plate. The collected fluid was called the “filtrate.” In total, between 19.0 and 21.2 minutes elapsed between the first addition of cells to the exposure volume and the start of the centrifugation. The total time elapsed differed slightly among wells because cells could not be manually added to all wells at the exact same time.
8 μL of each filtrate was transferred to new containers containing 6 μL of Lucigen DNA Extraction Buffer, vortexed, centrifuged briefly to collect liquid at the bottom of the tube, and then heated for 6 minutes at 65° C. and then 4 minutes at 98° C.
After the creation of the filtrates, 30 μL of fresh MHB media was added to all filters. […] The purpose of this new volume of MHB was to wash away residual extracellular nucleic acids that might be confused for intracellular nucleic acids when the lysate was collected. The 30 μL of fresh MHB was centrifuged for 5 minutes at 2200 rcf into a clean 96-well plate, then discarded.
Next, 20 μL of DNA Extraction Buffer was placed into all of the wells of the filter plate, on top of the filters. The filter plate was heated to 65° C. for 6 minutes, without shaking, on a ThermoMixer® flat surface heating block. Intracellular nucleic acids were released from lysed cells into the DNA Extraction Buffer fluid. Then, the filter plate was taped to a clean 96-well polypropylene microtiter plate and centrifuged at 2200 rcf for 5 minutes. The DEB fluid that flowed through the filter was collected in the microtiter plate below the filter plate. […]

C[C@@H](O)[C@H]1C(=O)N2C(C(=O)O)=C(S[C@@H]3CN[C@H](C(=O)Nc4cccc(C(=O)O)c4)C3)[C@H](C)[C@H]12 [ETP, ertapenem]
susceptibility interpretation (2.0 μg/mL condition, more exposure time or more cells needed for a conclusive result): more likely to be susceptible | proportion of lysis (2.0 μg/mL condition, reference background 0/29): 2/34 | Intact (most likely number of cells) (Treated 0.25 μg ETP/mL): 26 | Lysed (most likely number of cells) (Treated 0.25 μg ETP/mL): 0 | Both (number of wells) (Treated 0.25 μg ETP/mL): 0 | Empty (number of wells) (Treated 0.25 μg ETP/mL): 15 | Extracellular only (number of wells) (Treated 0.25 μg ETP/mL): 0 | Intracellular only (number of wells) (Treated 0.25 μg ETP/mL): 17 | Intact (most likely number of cells) (Treated 2.00 μg ETP/mL): 32 | Lysed (most likely number of cells) (Treated 2.00 μg ETP/mL): 2 | Both (number of wells) (Treated 2.00 μg ETP/mL): 2 | Empty (number of wells) (Treated 2.00 μg ETP/mL): 10 | Extracellular only (number of wells) (Treated 2.00 μg ETP/mL): 0 | Intracellular only (number of wells) (Treated 2.00 μg ETP/mL): 20
